According to patent US10828301B2, “2,4-pyrimidinediamine compounds and their uses” (Rigel Pharmaceuticals, Inc, priority 2002, dated 2020):

Legend:
[1] = test system: cultured human mast cells (CHMC); experiment: CHMC low cell density IgE activation: tryptase and LTC4 assays; type: cell-based
How it was run: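 Cultured human mast cells at low density (1000-1500 per well) rested 1 h at 37° C, then stimulated with anti-IgE for 30 min at 37° C. Supernatant tryptase measured with fluorogenic substrate (30 min, room temperature); LTC4 quantified by ELISA on diluted supernatant.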

[2] = test system: cultured human mast cells (CHMC); experiment: CHMC low cell density ionomycin activation: tryptase assay; type: cell-based; settings: read-out: CHMC Ionomycin Tryptase
[3] = Homo sapiens, Mast cell, Low Density CHMC, anti-IgE activation, tryptase readout, read-out: CHMC anti-IgE Tryptase
[4] = Homo sapiens, Mast cell, Low Density CHMC, ionomycin activation, tryptase readout
[5] = Low Density CHMC, anti-IgE activation, tryptase readout, read-out: CHMC anti-IgE Tryptase
[6] = Low Density CHMC, ionomycin activation, tryptase readout
[7] = Homo sapiens, Mast cell, read-out: CHMC anti-IgE Tryptase
[8] = Homo sapiens, Mast cell, Low Density CHMC, anti-IgE activation, LTC4 readout, read-out: CHMC anti-IgE LTC4

IC50 [1, 3] [µM]	IC50 [2, 4] [µM]	SMILES	other results
1.88	> 10	COC(=O)c1cc(N)cc(Nc2ncc(F)c(Nc3cc(N)cc(C(=O)OC)c3)n2)c1 [Compound R950134, N2,N4-Bis(3-amino-5-methoxycarbonylphenyl)-5-fluoro-2,4-pyrimidinediamine]	
0.26	> 10	COC(=O)C1Cc2cc(Nc3ncc(F)c(Nc4ccc(F)c(F)c4)n3)ccc2O1 (racemic) [Compound R927030, (±)-N4-(3,4-Difluorophenyl)-N2-(2,3-dihydro-2-methoxycarbonylbenzofuran-5-yl)-5-fluoro-2,4-pyrimidinediamine]	
1.88	> 10	Fc1cnc(Nc2ccc3c(c2)OCCO3)nc1Nc1ccc(N2CCN(Cc3ccccc3)CC2)cc1 [Compound R945155, N4-[4-(N-Benzylpiperazino)phenyl]-N2-(3,4-ethylenedioxyphenyl)-5-fluoro-2,4-pyrimidinediamine]	
0.461	> 10	O=C1CCNC2=COc3ccc(Nc4nc(Nc5cccc(O)c5)ncc4F)cc3N12 [Compound R945237, 5-Fluoro-N2-(3-hydroxyphenyl)-N4-[1-oxo-1,2,3,6-tetrahydropyrimido[2,1-c][1,4]benzoxazin-9-yl]-2,4-pyrimidinediamine]	
> 10	> 10	Oc1cccc(Nc2nc(NCCN3CCN(Cc4ccccc4)CC3)ncc2F)c1 [Compound R940261, N2-[2-(N-Benzylpiperazino)ethyl]-5-fluoro-N4-(3-hydroxyphenyl)-2,4-pyrimidinediamine]	
4.15	> 10	COCCOc1cccc(Nc2ncc(F)c(Nc3cccc(OCCOC)c3)n2)c1 [Compound R935076, N2,N4-Bis[3-(2-methoxyethyl)oxyphenyl]-5-fluoro-2,4-pyrimidinediamine]	
10	9.8	Fc1cnc(NC(c2ccc(Cl)cc2)c2ccc(Cl)cc2)nc1NC(c1ccc(Cl)cc1)c1ccc(Cl)cc1 [Compound R935006, N2,N4-Bis[di-(4-chlorophenyl)methyl]-5-fluoro-2,4-pyrimidinediamine]	
0.277	> 10	CC(C)(CO)c1ccc(Nc2nc(Nc3cccc(OCCO)c3)ncc2F)cc1 [Compound R935161, 5-Fluoro-N4-[4-(2-hydroxy-1,1-dimethylethyl)phenyl]-N2-[3-(2-hydroxyethoxy)phenyl]-2,4-pyrimidinediamine]	
10	> 10	COC(=O)c1ccc(Nc2ncc(F)c(Nc3ccc(C(=O)OC)c(O)c3)n2)cc1O [Compound R945056, N2,N4-Bis[3-hydroxy-4-(methoxycarbonyl)phenyl]-5-fluoro-2,4-pyrimidinediamine]	
0.284	> 10	CNC(=O)C1Cc2cc(Nc3ncc(F)c(Nc4ccc(OC(F)(F)F)c(Cl)c4)n3)ccc2O1 (stereo not drawn) [Compound R926954, N4-(3-Chloro-4-trifluoromethoxyphenyl)-5-fluoro-N2-[2,3-dihydro-2-[(N-methylamino)carbonyl]benzofuran-5-yl]-2,4-pyrimidinediamine]	
> 10	> 10	Cc1c(O)cccc1Nc1ncc(F)c(Nc2cccc(O)c2C)n1 [Compound R945038, N2,N4-Bis(3-hydroxy-2-methylphenyl)-5-fluoro-2,4-pyrimidinediamine]	
10	> 10	N#Cc1ccc(Nc2ncc(F)c(Nc3ccc(C#N)cc3)n2)cc1 [Compound R945057, N2,N4-Bis(4-cyanophenyl)-5-fluoro-2,4-pyrimidinediamine]	
0.64	5.55	Oc1ccc(Nc2ncc(F)c(Nc3ccc(O)c(C(F)(F)F)c3)n2)cc1C(F)(F)F [Compound R950093, N2,N4-Bis(4-hydroxy-3-trifluoromethylphenyl)-5-fluoro-2,4-pyrimidinediamine]	

Further lines, the compound ahead of its results:

SMILES	IC50 [1, 3] [µM]	IC50 [2, 4] [µM]	other results
COc1cc(-c2ccccc2)c(C)cc1Nc1ccnc(Nc2cc(C)c(-c3ccccc3)cc2OC)n1 [Compound R925808, N2,N4-Bis(2-methoxy-5-methyl-4-phenylphenyl)-2,4-pyrimidinediamine]	> 10	> 10	
CCOC(=O)Nc1ccc(Nc2ncc(F)c(Nc3ccc(NC(=O)OCC)c(O)c3)n2)cc1O [Compound R926340, N2,N4-Bis(4-ethoxycarbonylamino-3-hydroxyphenyl)-5-fluoro-2,4-pyrimidinediamine]	3.23	> 10	
CC(C)(C)OC(=O)Nc1ccc(Nc2ncc(F)c(Nc3ccc(NC(=O)OC(C)(C)C)cc3)n2)cc1 [Compound R950120, N2,N4-Bis[4-(tert-butoxycarbonylamino)phenyl]-5-fluoro-2,4-pyrimidinediamine]	3	> 10	
CNC(=O)COc1cccc(Nc2ncc(F)c(Nc3ccc(OCCO)nc3)n2)c1 [Compound R927023, 5-Fluoro-N4-[2-(2-hydroxyethyleneoxy)pyridin-5-yl]-N2-[3-(N-methylamino)carbonylmethyleneoxyphenyl]-2,4-pyrimidinediamine]			IC50 [1, 5]: 0.918 µM; IC50 [2, 6]: > 10 µM
C=CCNc1ncc(F)c(Nc2ccc3c(c2)OCCO3)n1 [Compound R925823, N2-Allyl-N4-(3,4-ethylenedioxyphenyl)-5-fluoro-2,4-pyrimidinediamine]	> 10	> 10	
N#Cc1cnc(Nc2ccc3c(c2)OCCO3)nc1Nc1ccc2c(c1)OCCO2 [Compound R925773, N2,N4-Bis(3,4-ethylenedioxyphenyl)-5-cyano-2,4-pyrimidinediamine]	0.673	> 10	
c1cc2c(cc1Nc1cc(Nc3ccc4c(c3)OCCO4)nc(Nc3ccc4c(c3)OCCO4)n1)OCCO2 [Compound R926516, N2,N4,N6-Tris(3,4-ethylenedioxyphenyl)-2,4,6-pyrimidinetriamine]	1	> 10	
CNc1ncc(F)c(Nc2ccc3c(c2)OCCO3)n1 [Compound R950189]			IC50 [1, 5]: 10 µM; IC50 [2, 6]: > 10 µM
CC(C)(C)OC(=O)Nc1cccc(Nc2ncc(F)c(Nc3cccc(NC(=O)OC(C)(C)C)c3)n2)c1 [Compound R950108, N2,N4-Bis[3-(tert-butoxycarbonylamino)phenyl]-5-fluoro-2,4-pyrimidinediamine]	2.08	> 10	
CC(C)NC(=O)Oc1cccc(Nc2ncc(F)c(Nc3cccc(OC(=O)NC(C)C)c3)n2)c1 [Compound R926412, N2,N4-Bis(3-isopropylaminocarbonyloxyphenyl)-5-fluoro-2,4-pyrimidinediamine]			IC50 [1, 7]: 0.62 µM; IC50 ([2]; Homo sapiens, Mast cell): > 10 µM
Brc1cnc(Nc2ccc3c(c2)OCCO3)nc1Nc1ccc2c(c1)OCCO2 [Compound R925771, N2,N4-Bis(3,4-ethylenedioxyphenyl)-5-bromo-2,4-pyrimidinediamine]	0.5	2.8	IC50 [1, 8]: 0.22 µM
Fc1cnc(Nc2cccc(-c3ccccc3)c2)nc1Nc1cccc(-c2ccccc2)c1 [Compound R926403, N2,N4-Bis[(3-phenyl)phenyl]-5-fluoro-2,4-pyrimidinediamine]	> 10	> 10	
Oc1cccc(Nc2nc(Nc3ccc(OCc4nnn[nH]4)cc3)ncc2C(F)(F)F)c1 [Compound R920846]			IC50 [1, 5]: > 10 µM; IC50 [2, 6]: > 10 µM
COc1ccc(Nc2ncc(F)c(Nc3ccc4c(c3)OCCO4)n2)c(OC)c1 [Compound R926789, N2-(2,4-Dimethoxyphenyl)-N4-(3,4-ethylenedioxyphenyl)-5-fluoro-2,4-pyrimidinediamine]	2.31	> 10	
CCOC(=O)c1cc2cc(Nc3ncc(F)c(Nc4ccc(C(C)(C)C)cc4)n3)ccc2[nH]1 [Compound R926474, N4-(4-tert-Butylphenyl)-N2-(2-ethoxycarbonylindol-5-yl)-5-fluoro-2,4-pyrimidinediamine]	2.5	> 10	
CC(C)c1ccc(Nc2ncc(F)c(Nc3cccc(O)c3)n2)cc1 [Compound R926778, 5-Fluoro-N4-(3-hydroxyphenyl)-N2-(4-isopropylphenyl)-2,4-pyrimidinediamine]	0.414	> 10	
Oc1cccc(Nc2ncc(-c3ccccc3)c(Nc3cccc(O)c3)n2)c1 [Compound R925783, N2,N4-Bis(3-hydroxyphenyl)-5-phenyl-2,4-pyrimidinediamine]	2.9	> 10	
COC(=O)c1cc2cc(Nc3ncc(F)c(Nc4cccc(OC(C)C)c4)n3)ccc2o1 [Compound R926487, 5-Fluoro-N4-(3-isopropoxyphenyl)-N2-(2-methoxycarbonylbenzofuran-5-yl)-2,4-pyrimidinediamine]	0.554	8.87	IC50 [1, 8]: 1.25 µM
O=[N+]([O-])c1cc(Nc2ccnc(Nc3ccc(Cl)c([N+](=O)[O-])c3)n2)ccc1Cl [Compound R950154, N2,N4-Bis(4-chloro-3-nitrophenyl)-2,4-pyrimidinediamine]			IC50 [1, 7]: 2.08 µM; IC50 ([2]; Homo sapiens, Mast cell): > 10 µM
COC(=O)Cn1ncc2cc(Nc3ncc(F)c(Nc4ccc(OC(C)C)cc4)n3)ccc21 [Compound R935222, 5-Fluoro-N4-(4-isopropoxyphenyl)-N2-[1-(methoxycarbonyl)methyl-indazoline-5-yl]-2,4-pyrimidinediamine]			IC50 [1, 5]: 0.52 µM; IC50 [2, 6]: > 10 µM
O=c1ccc2cc(Nc3ncc(F)c(Nc4ccc5oc(=O)ccc5c4)n3)ccc2o1 [Compound R926617, N2,N4-Bis(coumarin-6-yl)-5-fluoro-2,4-pyrimidinediamine]	9.45	> 10	
Fc1cnc(Nc2ccc3[nH]ccc3c2)nc1Nc1ccc2[nH]ccc2c1 [Compound R926582, N2,N4-Bis(indol-5-yl)-5-fluoro-2,4-pyrimidinediamine]	1.3	> 10	
